Molecules are shown by their SMILES.

The test system of this experiment is HIV-1 (H9IIIB strain). Description: Cell-Based HIV Infection Assay Using a Reporter (MT4-GFP cells). The note with it: Human immunodeficiency virus 1, inflection point (IP) of viral growth inhibition; MT4-GFP cells infected with HIV-1 H9IIIB; 50% normal human serum; mean of at least two independent experiments; read-out: Cell Based IP (50% NHS). The gist of the method:
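Inflection point from a 4-parameter curve of % viral growth inhibition, normalised to DMSO and triple-drug controls, using the 48 h/24 h ratio of GFP-positive cells (R0). MT4-GFP cells pre-infected 24 h with HIV-1 H9IIIB at low MOI; compounds tested in 50% normal human serum, 0.4% DMSO; mean of ≥2 experiments.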
`CC1(C)C[C@@H]([C@H](c2ccc(Cl)cc2)[C@H](N)C(=O)Nc2c(F)ccc(F)c2CC[C@H]2CN[C@@H]3CCCS(=O)(=O)N2C3)CCO1` [Example 194, (βR)-4-chloro-β-[(4S)-2,2-dimethyltetrahydro-2H-pyran-4-yl]-N-(2-{2-[(6R,9S)-2,2-dioxido-2-thia-1,7-diazabicyclo[4.3.1]dec-9-yl]ethyl}-3,6-difluorophenyl)-L-phenylalaninamide]: the EC50 stood at 19 nM. To `N[C@H](C(=O)Nc1cncc(F)c1CC[C@H]1CN[C@@H]2CCCS(=O)(=O)N1C2)[C@@H](c1ccc(F)cc1)C1CCOCC1` [Example 195, (βR)-N-(4-{2-[(6R,9S)-2,2-dioxido-2-thia-1,7-diazabicyclo[4.3.1]dec-9-yl]ethyl}-5-fluoropyridin-3-yl)-4-fluoro-β-(tetrahydro-2H-pyran-4-yl)-L-phenylalaninamide] belongs 67 nM; to `C[C@@H]1CC([C@H](c2ccc(Cl)cc2)[C@H](N)C(=O)N[C@H]2CCC[C@@H]2CC[C@H]2CN[C@@H]3CCCS(=O)(=O)N2C3)C[C@H](C)O1` (stereo partly drawn) [Example 196, (βR)-4-chloro-β-[(2R,4s,6S)-2,6-dimethyltetrahydro-2H-pyran-4-yl]-N-[(1S,2R)-2-{2-[(6R,9S)-2,2-dioxido-2-thia-1,7-diazabicyclo[4.3.1]dec-9-yl]ethyl}cyclopentyl]-L-phenylalaninamide], 120 nM.

In the case of `COC(=O)N[C@H](C(=O)Nc1c(F)ccc(F)c1CC[C@H]1CN[C@@H]2CCCS(=O)(=O)N1C2)[C@@H](c1ccc(Cl)cc1)[C@H]1CCOC(C)(C)C1` [Example 200, methyl {(1S,2R)-2-(4-chlorophenyl)-2-[(4S)-2,2-dimethyltetrahydro-2H-pyran-4-yl]-1-[(2-{2-[(6R,9S)-2,2-dioxido-2-thia-1,7-diazabicyclo[4.3.1]dec-9-yl]ethyl}-3,6-difluorophenyl)carbamoyl]ethyl}carbamate], the EC50 was 35 nM. To `COC(=O)N[C@H](C(=O)Nc1cccc(F)c1CC[C@H]1CN[C@@H]2CCCS(=O)(=O)N1C2)[C@@H](c1ccc(F)cc1)[C@H]1CC[C@H](O)CC1` [Example 201, methyl [(1S)-2-[(2-{2-[(6R,9S)-2,2-dioxido-2-thia-1,7-diazabicyclo[4.3.1]dec-9-yl]ethyl}-3-fluorophenyl)amino]-1-{(R)-(4-fluorophenyl)[(1r,4R)-4-hydroxycyclohexyl]methyl}-2-oxoethyl]carbamate] belongs 220 nM; to `N[C@H](C(=O)Nc1cccc(F)c1CC[C@H]1CN[C@@H]2CCCS(=O)(=O)N1C2)[C@@H](c1ccc(F)cc1)[C@H]1CC[C@H](O)CC1` [Example 202, (βR)-N-(2-{2-[(6R,9S)-2,2-dioxido-2-thia-1,7-diazabicyclo[4.3.1]dec-9-yl]ethyl}-3-fluorophenyl)-4-fluoro-β-[(1r,4R)-4-hydroxycyclohexyl]-L-phenylalaninamide], 89 nM; to `COC(=O)N[C@H](C(=O)Nc1cccc(C(F)(F)F)c1CC[C@H]1CN[C@@H]2CCCS(=O)(=O)N1C2)[C@@H](c1ccc(F)cc1)C1C[C@@H](C)O[C@@H](C)C1` (stereo partly drawn) [Example 203, methyl [(1S,2R)-2-[(2R,6S)-2,6-dimethyltetrahydro-2H-pyran-4-yl]-1-{[2-{2-[(6R,9S)-2,2-dioxido-2-thia-1,7-diazabicyclo[4.3.1]dec-9-yl]ethyl}-3-(trifluoromethyl)phenyl]carbamoyl}-2-(4-fluorophenyl)ethyl]carbamate], 150 nM. Then `C[C@@H]1CC([C@H](c2ccc(F)cc2)[C@H](N)C(=O)Nc2cccc(C(F)(F)F)c2CC[C@H]2CN[C@@H]3CCCS(=O)(=O)N2C3)C[C@H](C)O1` (stereo partly drawn) [Example 204, (βR)-β-[(2R,6S)-2,6-dimethyltetrahydro-2H-pyran-4-yl]-N-[2-{2-[(6R,9S)-2,2-dioxido-2-thia-1,7-diazabicyclo[4.3.1]dec-9-yl]ethyl}-3-(trifluoromethyl)phenyl]-4-fluoro-L-phenylalaninamide], with 230 nM; and `CO[C@H]1CC[C@](c2ccc(F)cc2)([C@H](N)C(=O)Nc2cccc(F)c2CC[C@H]2CN[C@@H]3CCCS(=O)(=O)N2C3)CC1` [Example 205, (2S)-2-amino-N-(2-{2-[(6R,9S)-2,2-dioxido-2-thia-1,7-diazabicyclo[4.3.1]dec-9-yl]ethyl}-3-fluorophenyl)-2-[trans-1-(4-fluorophenyl)-4-methoxycyclohexyl]ethanamide], with 130 nM. Then `COC(=O)N[C@H](C(=O)Nc1cccc(F)c1CC[C@H]1CN[C@@H]2CCCS(=O)(=O)N1C2)[C@@H](c1ccc(F)cc1)c1cnc(OC(C)C)nc1` [Example 206, methyl [(1S)-2-[(2-{2-[(6R,9S)-2,2-dioxido-2-thia-1,7-diazabicyclo[4.3.1]dec-9-yl]ethyl}-3-fluorophenyl)amino]-1-{(S)-(4-fluorophenyl)[2-(1-methylethoxy)pyrimidin-5-yl]methyl}-2-oxoethyl]carbamate], with 16 nM; and `CO[C@H]1CC[C@H]([C@H](c2ccc(Cl)cc2)[C@H](N)C(=O)N[C@H]2CCCC[C@@H]2CC[C@H]2CN[C@@H]3CCCS(=O)(=O)N2C3)CC1` [Example 207, (βR)-4-chloro-N-[(1S,2R)-2-{2-[(6R,9S)-2,2-dioxido-2-thia-1,7-diazabicyclo[4.3.1]dec-9-yl]ethyl}cyclohexyl]-β-[(1r,4R)-4-methoxycyclohexyl]-L-phenylalaninamide], with 40 nM. Turning to `CC1(OC(=O)N2CCC([C@H](c3ccc(Cl)cc3)[C@H](N)C(=O)N[C@H]3CCC[C@@H]3CC[C@H]3CN[C@@H]4CCCS(=O)(=O)N3C4)CC2)CC1` [Example 208, 1-methylcyclopropyl 4-[(1R,2S)-2-amino-1-(4-chlorophenyl)-3-{[(1S,2R)-2-{2-[(6R,9S)-2,2-dioxido-2-thia-1,7-diazabicyclo[4.3.1]dec-9-yl]ethyl}cyclopentyl]amino}-3-oxopropyl]piperidine-1-carboxylate], the EC50 came to 100 nM.

Regarding `COC(=O)N[C@H](C(=O)Nc1cccc(F)c1CC[C@H]1CN[C@@H]2CCCS(=O)(=O)N1C2)[C@]1(c2ccc(F)cc2)CC[C@@H](OC)CC1` [Example 210, methyl {(1S)-2-[(2-{2-[(6R,9S)-2,2-dioxido-2-thia-1,7-diazabicyclo[4.3.1]dec-9-yl]ethyl}-3-fluorophenyl)amino]-1-[trans-1-(4-fluorophenyl)-4-methoxycyclohexyl]-2-oxoethyl}carbamate], the EC50 turned out to be 16 nM. In the case of `CCO[C@H]1CC[C@H]([C@H](c2ccc(F)cc2)[C@H](NC(=O)OC)C(=O)Nc2cccc(F)c2CC[C@H]2CN[C@@H]3CCCS(=O)(=O)N2C3)CC1` [Example 211, methyl {(1S)-2-[(2-{2-[(6R,9S)-2,2-dioxido-2-thia-1,7-diazabicyclo[4.3.1]dec-9-yl]ethyl}-3-fluorophenyl)amino]-1-[(R)-[(1r,4R)-4-ethoxycyclohexyl](4-fluorophenyl)methyl]-2-oxoethyl}carbamate], the EC50 was 6.4 nM. Then `CCO[C@H]1CC[C@H]([C@H](c2ccc(F)cc2)[C@H](N)C(=O)Nc2cccc(F)c2CC[C@H]2CN[C@@H]3CCCS(=O)(=O)N2C3)CC1` [Example 212, (βR)-N-(2-{2-[(6R,9S)-2,2-dioxido-2-thia-1,7-diazabicyclo[4.3.1]dec-9-yl]ethyl}-3-fluorophenyl)-β-[(1r,4R)-4-ethoxycyclohexyl]-4-fluoro-L-phenylalaninamide], with 7 nM; and `N[C@H](C(=O)Nc1cccc(F)c1CC[C@H]1CN[C@@H]2CCCS(=O)(=O)N1C2)[C@@H](c1ccc(F)cc1)C1CCCOC1` (stereo partly drawn) [Example 214, (βR)-N-(2-{2-[(6R,9S)-2,2-dioxido-2-thia-1,7-diazabicyclo[4.3.1]dec-9-yl]ethyl}-3-fluorophenyl)-4-fluoro-β-(tetrahydro-2H-pyran-3-yl)-L-phenylalaninamide], with 18 nM. Consider `CC1(C)C[C@@H]([C@H](c2ccc(Cl)cc2)[C@H](N)C(=O)Nc2cncc(F)c2CC[C@H]2CN[C@@H]3CCCS(=O)(=O)N2C3)CCO1` [Example 215, (βR)-4-chloro-β-[(4S)-2,2-dimethyltetrahydro-2H-pyran-4-yl]-N-(4-{2-[(6R,9S)-2,2-dioxido-2-thia-1,7-diazabicyclo[4.3.1]dec-9-yl]ethyl}-5-fluoropyridin-3-yl)-L-phenylalaninamide], for which the EC50 worked out at 8 nM.

For the compound `NC(C(=O)Nc1cccc(F)c1CC[C@H]1CN[C@@H]2CCCS(=O)(=O)N1C2)[C@@H](c1ccc(Cl)cc1)[C@H]1CC[C@H](O)CC1` (stereo partly drawn) [Example 217, (βR)-4-chloro-N-(2-{2-[(6R,9S)-2,2-dioxido-2-thia-1,7-diazabicyclo[4.3.1]dec-9-yl]ethyl}-3-fluorophenyl)-β-[(1r,4R)-4-hydroxycyclohexyl]-L-phenylalaninamide], the EC50 was found to be 13 nM. Then `COC(=O)N[C@H](C(=O)Nc1cccc(F)c1CCC1CNC2CCCS(=O)(=O)N1C2)[C@@H](c1ccc(F)cc1)c1ccc(C(F)(F)F)cc1` (stereo partly drawn) [Example 224, Methyl [(1S)-2-({2-[2-(2,2-dioxido-2-thia-1,7-diazabicyclo[4.3.1]dec-9-yl)ethyl]-3-fluorophenyl}amino)-1-{(R)-(4-fluorophenyl)[4-(trifluoromethyl)phenyl]methyl}-2-oxoethyl]carbamate], with 5.7 nM. Then `N[C@H](C(=O)Nc1cccc(F)c1CCC1CNC2CCCS(=O)(=O)N1C2)[C@@H](c1ccc(F)cc1)c1ccc2c(c1)CCC2` (stereo partly drawn) [Example 225, (2S,3S)-2-Amino-3-(2,3-dihydro-1H-inden-5-yl)-N-{2-[2-(2,2-dioxido-2-thia-1,7-diazabicyclo[4.3.1]dec-9-yl)ethyl]-3-fluorophenyl}-3-(4-fluorophenyl)propanamide], with 45 nM.

The values above are taken from US10138255B2, “Piperazine derivatives as HIV protease inhibitors” (Merck Sharp & Dohme Corp., priority 2014, dated 2018).
